According to patent US12428406B2 (PMV Pharmaceuticals, Inc., priority 2019, dated 2025):

What follows are compounds tested against T1, p53 Y220C (Homo sapiens, UniProt P04637, Y220C) (assay: In vitro DNA binding activity assay (HTRF / TR-FRET): stabilization of p53 Y220C and increase of its DNA binding activity). Details: recombinant His-tagged p53 Y220C DNA binding domain (aa 94-312), biotin-labeled consensus DNA, incubated at 27° C. or 29° C. for 60 min.
T1 construct: The recombinant protein was a truncation mutant containing only amino acids 94-312 of p53; made in house; host or cells: E. coli
T1 sequence (P04637 94-312, change not shown): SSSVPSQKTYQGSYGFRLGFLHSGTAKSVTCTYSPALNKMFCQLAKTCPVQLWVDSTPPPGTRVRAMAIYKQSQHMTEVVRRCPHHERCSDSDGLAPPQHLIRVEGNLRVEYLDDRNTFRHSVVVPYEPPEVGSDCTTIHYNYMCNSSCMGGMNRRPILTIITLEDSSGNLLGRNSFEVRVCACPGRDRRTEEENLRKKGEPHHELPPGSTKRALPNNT
Assay type: biochemical
Procedure: The ability of a compound of the invention to stabilize p53 Y220C and increase the DNA binding activity of p53 Y220C was measured by a homogeneous time-resolved fluorescence (HTRF) assay. Recombinant His-tagged p53 Y220C used in the HTRF assay was expressed in the bacterium E. coli.
The binding of the recombinant His-tagged p53 Y220C protein and the biotin-labeled consensus DNA was measured using fluorescence resonance energy transfer (FRET). For the FRET assay, the binding between the p53 mutant and the DNA sequence was measured by detecting the fluorescence of the interaction between an anti-His antibody conjugated to allophycocyanin (APC) and streptavidin conjugated to europium to detect the biotin-labeled DNA.
The test compounds were prepared as 4.5 mM stock solutions in dimethyl sulfoxide (DMSO). The compounds of the disclosure were used to test the stabilization of p53 Y220C and increase in DNA binding activity of p53 Y220C. The stock solutions were then serially diluted 3-fold in DMSO, and 1.2 μL of the diluted solutions was added to each well of a 384-well polypropylene black plate.
The test and control samples were spun at 1200 rpm for 1 minute and incubated at room temperature for 15 minutes. […] The plates were spun at 1200 rpm for 1 minute and incubated at room temperature for 20 minutes. The assay signals were monitored by reading excitation at 340 nm, and emission fluorescence at 615 nm and 665 nm on a plate reader.
The percentage of activation of protein DNA binding in the presence of a compound of the invention compared to the absence of the compound was denoted by a SC150 value, which indicated the concentration of the compound required to increase the DNA binding activity by 50%. The SC150 values were calculated using either Prism™ or ActivityBase™.
For `CCOCC(O)CN1CCC(Nc2cccc3c2cc(C#CCNc2ccc(S(C)(=O)=O)cc2OC)n3CC(F)(F)F)CC1` (centres unmarked) [Compound 660A, 1-ethoxy-3-{4-[(2-{3-[(4-methanesulfonyl-2-methoxyphenyl)amino]prop-1-yn-1-yl}-1-(2,2,2-trifluoroethyl)-1H-indol-4-yl)amino]piperidin-1-yl}propan-2-ol], the “SC150 (concentration of the compound required to increase the DNA binding activity by 50%)” value was “+ (+ = 0 μM ≤ SC150 < 0.05 μM)”.
With `COc1cc(C(C)(C)C#N)ccc1NCC#Cc1cc2c(N[C@H]3CC[C@H](N(C)C)CC3)cccc2n1CC(F)(F)F` [Compound 121A, 2-(3-methoxy-4-{[3-(4-{[(1R,4R)-4-(dimethylamino)cyclohexyl]amino}-1-(2,2,2-trifluoroethyl)-1H-indol-2-yl)prop-2-yn-1-yl]amino}phenyl)-2-methylpropanenitrile] the “SC150 (concentration of the compound required to increase the DNA binding activity by 50%)” value was “+ (+ = 0 μM ≤ SC150 < 0.05 μM)”.
In the case of `COc1cc(S(C)(=O)=O)ccc1NCC#Cc1cc2c(N[C@@H]3C[C@@H](C)O[C@@H](C)C3)cccc2n1CC(F)(F)F` [Compound 1028A, 2-{3-[(4-methanesulfonyl-2-methoxyphenyl)amino]prop-1-yn-1-yl}-N-[(2R,4S,6S)-2,6-dimethyloxan-4-yl]-1-(2,2,2-trifluoroethyl)-1H-indol-4-amine], the “SC150 (concentration of the compound required to increase the DNA binding activity by 50%)” value is reported as “+++ (+++ = 0.1 μM ≤ SC150 < 0.2 μM)”.
`CCC(=O)OCCN1CCC(Nc2cccc3c2cc(C#CCNc2ccc(S(N)(=O)=O)cc2OC)n3CC(F)(F)F)CC1` [Compound 608A, 2-{4-[(2-{3-[(2-methoxy-4-sulfamoylphenyl)amino]prop-1-yn-1-yl}-1-(2,2,2-trifluoroethyl)-1H-indol-4-yl)amino]piperidin-1-yl}ethyl propanoate] was tested, and the “SC150 (concentration of the compound required to increase the DNA binding activity by 50%)” value was “+ (+ = 0 μM ≤ SC150 < 0.05 μM)”.
For `COCCCN1CCC(Nc2cccc3c2cc(C#CCNc2ccc(S(C)(=O)=O)cc2OC)n3CC(F)(F)F)CC1` [Compound 675A, 2-{3-[(4-methanesulfonyl-2-methoxyphenyl)amino]prop-1-yn-1-yl}-N-[1-(3-methoxypropyl)piperidin-4-yl]-1-(2,2,2-trifluoroethyl)-1H-indol-4-amine], the “SC150 (concentration of the compound required to increase the DNA binding activity by 50%)” value was “+ (+ = 0 μM ≤ SC150 < 0.05 μM)”.
For `COC(=O)c1ccc(NCC#Cc2cc3c(N[C@H]4CCN(C)C[C@H]4F)cccc3n2CC(F)(F)F)c(OC)c1` (stereo in doubt) [Compound 794A, methyl 4-{[3-(4-{[(3R,4S)-3-fluoro-1-methylpiperidin-4-yl]amino}-1-(2,2,2-trifluoroethyl)-1H-indol-2-yl)prop-2-yn-1-yl]amino}-3-methoxybenzoate], the “SC150 (concentration of the compound required to increase the DNA binding activity by 50%)” value was “+ (+ = 0 μM ≤ SC150 < 0.05 μM)”.
In the case of `CCC(=O)OCCN1CCC(Nc2cccc3c2cc(C#CCNc2ccc(S(C)(=O)=O)cc2OC)n3CC(F)(F)F)CC1` [Compound 585A, 2-{4-[(2-{3-[(4-methanesulfonyl-2-methoxyphenyl)amino]prop-1-yn-1-yl}-1-(2,2,2-trifluoroethyl)-1H-indol-4-yl)amino]piperidin-1-yl}ethyl propanoate], the “SC150 (concentration of the compound required to increase the DNA binding activity by 50%)” value is reported as “+ (+ = 0 μM ≤ SC150 < 0.05 μM)”.
With `COc1cc(C(=O)O)ccc1NCC#Cc1cc2c(N[C@H]3CC[C@H](N4CC5(COC5)C4)CC3)cccc2n1CC(F)(F)F` [Compound 279A, 4-((3-(4-(((1R,4R)-4-(2-oxa-6-azaspiro[3.3]heptan-6-yl)cyclohexyl)amino)-1-(2,2,2-trifluoroethyl)-1H-indol-2-yl)prop-2-yn-1-yl)amino)-3-methoxybenzoic acid] the “SC150 (concentration of the compound required to increase the DNA binding activity by 50%)” value was “+ (+ = 0 μM ≤ SC150 < 0.05 μM)”.
In the case of `CCOc1cc(S(C)(=O)=O)ccc1NCC#Cc1cc2c(N[C@H]3CCN(C)C[C@H]3F)cccc2n1CC(F)(F)F` [Compound 844A], the “SC150 (concentration of the compound required to increase the DNA binding activity by 50%)” value is reported as “+ (+ = 0 μM ≤ SC150 < 0.05 μM)”.
For `COCCN1CC[C@H](Nc2cccc3c2cc(C#CCNc2ccc(C(=O)OC)cc2OC)n3CC(F)(F)F)[C@H](F)C1` [Compound 902A], the “SC150 (concentration of the compound required to increase the DNA binding activity by 50%)” value was “+ (+ = 0 μM ≤ SC150 < 0.05 μM)”.
In the case of `COc1cc(C(=O)NCC(C)O)ccc1NCC#Cc1cc2c(N[C@@H]3CCN(C)C[C@@H]3F)cccc2n1CC(F)(F)F` (stereo partly drawn) [Compound 1057A, 4-{[3-(4-{[(3S,4R)-3-fluoro-1-methylpiperidin-4-yl]amino}-1-(2,2,2-trifluoroethyl)-1H-indol-2-yl)prop-2-yn-1-yl]amino}-N-(2-hydroxypropyl)-3-methoxybenzamide], the “SC150 (concentration of the compound required to increase the DNA binding activity by 50%)” value is reported as “+ (+ = 0 μM ≤ SC150 < 0.05 μM)”.
`COCCN(C)S(=O)(=O)c1ccc(NCC#Cc2cc3c(NC4CCS(=O)(=O)CC4)cccc3n2CC(F)(F)F)c(OC)c1` [Compound 1046A, 4-[(3-{4-[(1,1-dioxo-1λ^6-thian-4-yl)amino]-1-(2,2,2-trifluoroethyl)-1H-indol-2-yl}prop-2-yn-1-yl)amino]-3-methoxy-N-(2-methoxyethyl)-N-methylbenzene-1-sulfonamide] was tested, and the “SC150 (concentration of the compound required to increase the DNA binding activity by 50%)” value was “+ (+ = 0 μM ≤ SC150 < 0.05 μM)”.
With `COCC(O)CN1CCC(Nc2cccc3c2cc(C#CCNc2ccc(S(N)(=O)=O)cc2OC)n3CC(F)(F)F)CC1` (centres unmarked) [Compound 574A, 4-{[3-(4-{[1-(2-hydroxy-3-methoxypropyl)piperidin-4-yl]amino}-1-(2,2,2-trifluoroethyl)-1H-indol-2-yl)prop-2-yn-1-yl]amino}-3-methoxybenzene-1-sulfonamide] the “SC150 (concentration of the compound required to increase the DNA binding activity by 50%)” value was “+ (+ = 0 μM ≤ SC150 < 0.05 μM)”.
`COc1cc(S(=O)(=O)NC(C)=O)ccc1NCC#Cc1cc2c(NC3CCN(CC4COC(=O)O4)CC3)cccc2n1CC(F)(F)F` (centres unmarked) [Compound 761A, N-[3-methoxy-4-({3-[4-({1-[(2-oxo-1,3-dioxolan-4-yl)methyl]piperidin-4-yl}amino)-1-(2,2,2-trifluoroethyl)-1H-indol-2-yl]prop-2-yn-1-yl}amino)benzenesulfonyl]acetamide] was tested, and the “SC150 (concentration of the compound required to increase the DNA binding activity by 50%)” value was “+ (+ = 0 μM ≤ SC150 < 0.05 μM)”.
`COCCN(CCOC)[C@H]1CC[C@@H](Nc2cccc3c2cc(C#CCNc2ccc(S(N)(=O)=O)cc2OC)n3CC(F)(F)F)CC1` [Compound 62A, 3-methoxy-4-{[3-(4-{[(1S,4S)-4-[bis(2-methoxyethyl)amino]cyclo-hexyl]amino}-1-(2,2,2-trifluoroethyl)-1H-indol-2-yl)prop-2-yn-1-yl]amino}benzene-1-sulfonamide] was tested, and the “SC150 (concentration of the compound required to increase the DNA binding activity by 50%)” value was “+ (+ = 0 μM ≤ SC150 < 0.05 μM)”.
`COc1cc(S(C)(=O)=O)ccc1NCC#Cc1cc2c(N[C@H]3CCN(C(C)=O)[C@@H](C)C3)cccc2n1CC(F)(F)F` (stereo in doubt) [Compound 739A, 1-{4-[(2-{3-[(4-methanesulfonyl-2-methoxyphenyl)amino]prop-1-yn-1-yl}-1-(2,2,2-trifluoroethyl)-1H-indol-4-yl)amino]-2-methylpiperidin-1-yl}ethan-1-one] was tested, and the “SC150 (concentration of the compound required to increase the DNA binding activity by 50%)” value was “+ (+ = 0 μM ≤ SC150 < 0.05 μM)”.
In the case of `COC[C@H](O)CN1CCC(Nc2cccc3c2cc(C#CCNc2ccc(S(C)(=O)=O)cc2OCF)n3CC(F)(F)F)CC1` [Compound 667A, (2R)-1-(4-{[2-(3-{[2-(fluoromethoxy)-4-methanesulfonylphenyl]amino}prop-1-yn-1-yl)-1-(2,2,2-trifluoroethyl)-1H-indol-4-yl]amino}piperidin-1-yl)-3-methoxypropan-2-ol], the “SC150 (concentration of the compound required to increase the DNA binding activity by 50%)” value is reported as “+ (+ = 0 μM ≤ SC150 < 0.05 μM)”.
